Results from PubChem BioAssay (NCI).
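GI50 marks 50% less growth. TGI is the concentration that stops growth completely.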

Legend:
Assay in all cases: NCI-60 cell line screen, 384-well format
OVCAR-4 ovarian = tested on: OVCAR-4 ovarian
SN12C renal = tested on: SN12C renal
OVCAR-5 ovarian = tested on: OVCAR-5 ovarian
SK-MEL-28 melanoma = tested on: SK-MEL-28 melanoma
KM12 colon = tested on: KM12 colon
NCI-H460 NSCLC = tested on: NCI-H460 NSCLC
MDA-MB-435 melanoma = tested on: MDA-MB-435 melanoma
HOP-92 NSCLC = tested on: HOP-92 NSCLC
COLO 205 colon = tested on: COLO 205 colon
HL-60(TB) leukemia = tested on: HL-60(TB) leukemia
SK-OV-3 ovarian = tested on: SK-OV-3 ovarian
LOX IMVI melanoma = tested on: LOX IMVI melanoma
NCI-H226 lung = tested on: NCI-H226 lung
IGROV1 ovarian = tested on: IGROV1 ovarian
RXF 393 renal = tested on: RXF 393 renal
HT29 colon = tested on: HT29 colon
MOLT-4 leukemia = tested on: MOLT-4 leukemia
PC-3 prostate = tested on: PC-3 prostate
SF-539 CNS = tested on: SF-539 CNS
K-562 leukemia = tested on: K-562 leukemia
SNB-19 CNS = tested on: SNB-19 CNS
SF-268 CNS = tested on: SF-268 CNS
SK-MEL-5 melanoma = tested on: SK-MEL-5 melanoma
BT-549 breast = tested on: BT-549 breast
SR leukemia = tested on: SR leukemia
UACC-62 melanoma = tested on: UACC-62 melanoma
HS 578T breast = tested on: HS 578T breast
HCC-2998 colon = tested on: HCC-2998 colon
CAKI-1 renal = tested on: CAKI-1 renal
U251 glioblastoma = tested on: U251 glioblastoma
SW-620 colon = tested on: SW-620 colon
SNB-75 CNS = tested on: SNB-75 CNS
SF-295 CNS = tested on: SF-295 CNS
NCI-H322M lung = tested on: NCI-H322M lung
NCI-H23 lung = tested on: NCI-H23 lung
UACC-257 melanoma = tested on: UACC-257 melanoma
NCI/ADR-RES ovarian = tested on: NCI/ADR-RES ovarian
UO-31 renal = tested on: UO-31 renal
MDA-MB-468 breast = tested on: MDA-MB-468 breast
NCI-H522 lung = tested on: NCI-H522 lung
RPMI-8226 leukemia = tested on: RPMI-8226 leukemia
TK-10 renal = tested on: TK-10 renal
M14 melanoma = tested on: M14 melanoma
EKVX NSCLC = tested on: EKVX NSCLC
T-47D breast = tested on: T-47D breast
HOP-62 NSCLC = tested on: HOP-62 NSCLC
A549 NSCLC = tested on: A549 NSCLC
CCRF-CEM leukemia = tested on: CCRF-CEM leukemia
MCF7 breast = tested on: MCF7 breast
786-0 renal = tested on: 786-0 renal
OVCAR-8 ovarian = tested on: OVCAR-8 ovarian
ACHN renal = tested on: ACHN renal
MDA-MB-231 breast = tested on: MDA-MB-231 breast
A498 renal = tested on: A498 renal
MALME-3M melanoma = tested on: MALME-3M melanoma
HCT-15 colon = tested on: HCT-15 colon
DU-145 prostate = tested on: DU-145 prostate
OVCAR-3 ovarian = tested on: OVCAR-3 ovarian

Question: How did the GI50 (OVCAR-4 ovarian) turn out when `CN(C[C@@H]1COCCO1)S(=O)(=O)Nc1ccc2ccc3ncc(-c4cnn(C)c4)cc3c(=O)c2c1` was run?
Answer: 3.34 µM

Question: And the TGI (OVCAR-4 ovarian)?
Answer: 61 µM

Question: What about the GI50 (SN12C renal) of the same compound?
Answer: 1.64 µM

Question: And the TGI (SN12C renal)?
Answer: 8.8 µM

Question: And the GI50 (OVCAR-5 ovarian)?
Answer: 24 µM

Question: What about the TGI (OVCAR-5 ovarian) of the same compound?
Answer: > 100 µM

Question: And the GI50 (SK-MEL-28 melanoma)?
Answer: > 100 µM

Question: And the TGI (SK-MEL-28 melanoma)?
Answer: > 100 µM

Question: And the GI50 (KM12 colon)?
Answer: 0.31 µM

Question: And the TGI (KM12 colon)?
Answer: > 100 µM

Question: What about the GI50 (NCI-H460 NSCLC) of the same compound?
Answer: 3.45 µM

Question: And the TGI (NCI-H460 NSCLC)?
Answer: 62.1 µM

Question: And the GI50 (MDA-MB-435 melanoma)?
Answer: 21.6 µM

Question: What about the TGI (MDA-MB-435 melanoma) of the same compound?
Answer: > 100 µM

Question: What about the GI50 (HOP-92 NSCLC) of the same compound?
Answer: 2.08 µM

Question: What about the TGI (HOP-92 NSCLC) of the same compound?
Answer: 10.8 µM

Question: And the GI50 (COLO 205 colon)?
Answer: 24.4 µM

Question: And the TGI (COLO 205 colon)?
Answer: > 100 µM

Question: What about the GI50 (HL-60(TB) leukemia) of the same compound?
Answer: 3.32 µM

Question: And the TGI (HL-60(TB) leukemia)?
Answer: 21 µM

Question: What about the GI50 (SK-OV-3 ovarian) of the same compound?
Answer: 1.45 µM

Question: What about the TGI (SK-OV-3 ovarian) of the same compound?
Answer: 14.5 µM

Question: What about the GI50 (LOX IMVI melanoma) of the same compound?
Answer: 5.53 µM

Question: What about the TGI (LOX IMVI melanoma) of the same compound?
Answer: > 100 µM

Question: And the GI50 (NCI-H226 lung)?
Answer: 1.77 µM

Question: What about the TGI (NCI-H226 lung) of the same compound?
Answer: > 100 µM

Question: What about the GI50 (IGROV1 ovarian) of the same compound?
Answer: 2.13 µM

Question: What about the TGI (IGROV1 ovarian) of the same compound?
Answer: 9 µM

Question: And the GI50 (RXF 393 renal)?
Answer: 5.6 µM

Question: And the TGI (RXF 393 renal)?
Answer: > 100 µM

Question: What about the GI50 (HT29 colon) of the same compound?
Answer: 14.4 µM

Question: And the TGI (HT29 colon)?
Answer: > 100 µM

Question: And the GI50 (MOLT-4 leukemia)?
Answer: 1.58 µM

Question: And the TGI (MOLT-4 leukemia)?
Answer: 3.03 µM

Question: And the GI50 (PC-3 prostate)?
Answer: 5.71 µM

Question: And the TGI (PC-3 prostate)?
Answer: > 100 µM

Question: And the GI50 (SF-539 CNS)?
Answer: 1.63 µM

Question: And the TGI (SF-539 CNS)?
Answer: 15.2 µM

Question: What about the GI50 (K-562 leukemia) of the same compound?
Answer: 6.92 µM

Question: And the TGI (K-562 leukemia)?
Answer: > 100 µM

Question: And the GI50 (SNB-19 CNS)?
Answer: 27.2 µM

Question: What about the TGI (SNB-19 CNS) of the same compound?
Answer: > 100 µM

Question: What about the GI50 (SF-268 CNS) of the same compound?
Answer: 5.68 µM

Question: And the TGI (SF-268 CNS)?
Answer: > 100 µM

Question: And the GI50 (SK-MEL-5 melanoma)?
Answer: 2.61 µM

Question: And the TGI (SK-MEL-5 melanoma)?
Answer: 19.2 µM

Question: And the GI50 (BT-549 breast)?
Answer: 2.1 µM

Question: And the TGI (BT-549 breast)?
Answer: 45.5 µM

Question: What about the GI50 (SR leukemia) of the same compound?
Answer: 2.49 µM

Question: And the TGI (SR leukemia)?
Answer: 7.48 µM

Question: What about the GI50 (UACC-62 melanoma) of the same compound?
Answer: 3.36 µM

Question: What about the TGI (UACC-62 melanoma) of the same compound?
Answer: > 100 µM

Question: And the GI50 (HS 578T breast)?
Answer: 1.99 µM

Question: And the TGI (HS 578T breast)?
Answer: 8.1 µM

Question: What about the GI50 (HCC-2998 colon) of the same compound?
Answer: 39.6 µM

Question: What about the TGI (HCC-2998 colon) of the same compound?
Answer: > 100 µM

Question: What about the GI50 (CAKI-1 renal) of the same compound?
Answer: 1.89 µM

Question: What about the TGI (CAKI-1 renal) of the same compound?
Answer: > 100 µM

Question: And the GI50 (U251 glioblastoma)?
Answer: 6.34 µM

Question: What about the TGI (U251 glioblastoma) of the same compound?
Answer: > 100 µM

Question: And the GI50 (SW-620 colon)?
Answer: 7.12 µM

Question: And the TGI (SW-620 colon)?
Answer: > 100 µM

Question: What about the GI50 (SNB-75 CNS) of the same compound?
Answer: 2.18 µM

Question: What about the TGI (SNB-75 CNS) of the same compound?
Answer: 21.5 µM

Question: What about the GI50 (SF-295 CNS) of the same compound?
Answer: 1.12 µM

Question: And the TGI (SF-295 CNS)?
Answer: 10.9 µM

Question: What about the GI50 (NCI-H322M lung) of the same compound?
Answer: 4.99 µM

Question: And the TGI (NCI-H322M lung)?
Answer: > 100 µM

Question: And the GI50 (NCI-H23 lung)?
Answer: 0.588 µM

Question: What about the TGI (NCI-H23 lung) of the same compound?
Answer: 5.43 µM

Question: And the GI50 (UACC-257 melanoma)?
Answer: > 100 µM

Question: What about the TGI (UACC-257 melanoma) of the same compound?
Answer: > 100 µM

Question: What about the GI50 (NCI/ADR-RES ovarian) of the same compound?
Answer: 3.56 µM

Question: What about the TGI (NCI/ADR-RES ovarian) of the same compound?
Answer: 25.5 µM

Question: And the GI50 (UO-31 renal)?
Answer: 8.88 µM

Question: And the TGI (UO-31 renal)?
Answer: > 100 µM

Question: And the GI50 (MDA-MB-468 breast)?
Answer: 1.63 µM

Question: What about the TGI (MDA-MB-468 breast) of the same compound?
Answer: 5.2 µM

Question: And the GI50 (NCI-H522 lung)?
Answer: 2.68 µM

Question: And the TGI (NCI-H522 lung)?
Answer: 9.07 µM

Question: What about the GI50 (RPMI-8226 leukemia) of the same compound?
Answer: 1.36 µM

Question: And the TGI (RPMI-8226 leukemia)?
Answer: 5.21 µM

Question: And the GI50 (TK-10 renal)?
Answer: 8.38 µM

Question: And the TGI (TK-10 renal)?
Answer: > 100 µM

Question: What about the GI50 (M14 melanoma) of the same compound?
Answer: 3.67 µM

Question: What about the TGI (M14 melanoma) of the same compound?
Answer: > 100 µM

Question: And the GI50 (EKVX NSCLC)?
Answer: 16.2 µM

Question: And the TGI (EKVX NSCLC)?
Answer: > 100 µM

Question: What about the GI50 (T-47D breast) of the same compound?
Answer: 3.5 µM

Question: And the TGI (T-47D breast)?
Answer: 59.5 µM

Question: What about the GI50 (HOP-62 NSCLC) of the same compound?
Answer: 5.14 µM

Question: And the TGI (HOP-62 NSCLC)?
Answer: > 100 µM

Question: What about the GI50 (A549 NSCLC) of the same compound?
Answer: 8.08 µM

Question: What about the TGI (A549 NSCLC) of the same compound?
Answer: > 100 µM

Question: What about the GI50 (CCRF-CEM leukemia) of the same compound?
Answer: 3.12 µM

Question: What about the TGI (CCRF-CEM leukemia) of the same compound?
Answer: 9.46 µM

Question: What about the GI50 (MCF7 breast) of the same compound?
Answer: 5.9 µM

Question: And the TGI (MCF7 breast)?
Answer: > 100 µM

Question: And the GI50 ([…]-0 renal)?
Answer: 5.58 µM

Question: What about the TGI (786-0 renal) of the same compound?
Answer: > 100 µM

Question: And the GI50 (OVCAR-8 ovarian)?
Answer: 6.02 µM

Question: And the TGI (OVCAR-8 ovarian)?
Answer: > 100 µM

Question: And the GI50 (ACHN renal)?
Answer: 2.56 µM

Question: And the TGI (ACHN renal)?
Answer: > 100 µM

Question: What about the GI50 (MDA-MB-231 breast) of the same compound?
Answer: 8.45 µM

Question: What about the TGI (MDA-MB-231 breast) of the same compound?
Answer: > 100 µM

Question: What about the GI50 (A498 renal) of the same compound?
Answer: 0.808 µM

Question: What about the TGI (A498 renal) of the same compound?
Answer: 62.5 µM

Question: And the GI50 (MALME-3M melanoma)?
Answer: 3.48 µM

Question: And the TGI (MALME-3M melanoma)?
Answer: 73.6 µM

Question: What about the GI50 (HCT-15 colon) of the same compound?
Answer: 3.09 µM

Question: And the TGI (HCT-15 colon)?
Answer: > 100 µM

Question: And the GI50 (DU-145 prostate)?
Answer: 5.46 µM

Question: And the TGI (DU-145 prostate)?
Answer: > 100 µM

Question: And the GI50 (OVCAR-3 ovarian)?
Answer: 12.3 µM

Question: And the TGI (OVCAR-3 ovarian)?
Answer: > 100 µM
